{"source": "patent US20070219224A1", "about": "“Compositions and Methods Relating to Pyrimidine Synthesis Inhibitors” (UAB RESEARCH FOUNDATION, THE, priority 2004, published 2007)", "key": {"[1]": {"tested_on": "RSV-infected BALB/c mice", "experiment": "Alveolar fluid clearance (AFC) in RSV-infected mice at day 2 p.i.", "format": "in vivo", "parameters": "effect of uridine in the AFC instillate on the A77-1726 effect on AFC: dose or concentration left out as unconfirmed", "conditions": "for effect on RSV-mediated inhibition of AFC at day 2 p.i. (in words): added to the AFC instillate", "procedure": "Preparation of viral inocula and infection of mice. […] J. Physiol. Lung Cell Mol. Physiol. […] Data for each experimental group was derived from a minimum of 2 independent infections.\nSystemic inhibition of de novo pyrimidine and purine synthesis. Leflunomide (5-methylisoxazole-4-[4-trifluoromethyl]carboxanilide, 35 mg/kg in distilled water containing 1% methylcellulose) was administered once daily by oral gavage in a volume of 300 μl/mouse for 8 days prior to infection, then throughout the infection period. Vehicle controls were gavaged with an equivalent volume of 1% methylcellulose in distilled water.\nTo systemically block de novo pyrimidine synthesis, mice were gavaged once daily for 8 days with […] of the dihydro-orotate reductase (DHOR) inhibitor leflunomide ([…] suspended in 1% methylcellulose) or vehicle prior to infection, then at 0 and 24 hours p.i. AFC studies were performed at 48 hours p.i., with no additions to the AFC instillate.\nAFC studies were performed on anesthetized, ventilated BALB/c mice with normal body temperature and blood gases, over a 30 minute period after intratracheal instillation of 0.3 ml of isosmolar NaCl containing 5% fatty acid-free BSA. The number of mice analyzed per group is listed in the relevant bar of each graph."}, "[2]": {"tested_on": "IFN-α, IL-1β, KC, TNF-α in BALF", "experiment": "Measurement of proinflammatory cytokines in BALF (ELISA)", "format": "in vivo, BALB/c mice", "conditions": "RSV-infected mice, d2; exception IFN-α", "procedure": "(§1) Preparation of viral inocula and infection of mice. Preparation of viral stocks and intranasal infection of eight to twelve week-old pathogen-free BALB/c mice of either sex with RSV strain A2 (10^6 PFU in 100 μl) were performed as described in Davis et al., “Nucleotide-mediated inhibition of alveolar fluid clearance in BALB/c mice after respiratory syncytial virus infection,” Am. J. Physiol. Lung Cell Mol. Physiol. 286:L112-L120. (2004). Data for each experimental group was derived from a minimum of 2 independent infections.\n(§2) Bronchoalveolar lavage. Bronchoalveolar lavage fluid (BALF) was collected as previously described in Davis et al., (2004), using 1 ml of sterile normal saline for cytokine ELISAs, or 0.3 ml of sterile saline for nucleotide assays. Lavagates were centrifuged to remove cells and supernatants stored at −80° C.\nSystemic inhibition of de novo pyrimidine and purine synthesis. Leflunomide (5-methylisoxazole-4-[4-trifluoromethyl]carboxanilide, 35 mg/kg in distilled water containing 1% methylcellulose) was administered once daily by oral gavage in a volume of 300 μl/mouse for 8 days prior to infection, then throughout the infection period. Vehicle controls were gavaged with an equivalent volume of 1% methylcellulose in distilled water. […].\nMeasurement of proinflammatory cytokines in BALF. Cytokine levels were determined using Quantikine M ELISA kits (R & D Systems), in accordance with manufacturer's instructions."}, "[3]": {"format": "in vivo", "conditions": "RSV-infected mice, D1 and d2", "procedure": "as §1\n(§3) Systemic inhibition of de novo pyrimidine and purine synthesis. Leflunomide (5-methylisoxazole-4-[4-trifluoromethyl]carboxanilide, 35 mg/kg in distilled water containing 1% methylcellulose) was administered once daily by oral gavage in a volume of 300 μl/mouse for 8 days prior to infection, then throughout the infection period. Vehicle controls were gavaged with an equivalent volume of 1% methylcellulose in distilled water. […]"}, "[4]": {"tested_on": "UTP/ATP content of BALF", "experiment": "Measurement of nucleotides (UTP/ATP content) in BALF of RSV-infected mice", "format": "in vivo, BALB/c mice", "conditions": "d2", "procedure": "as §1, §2\nMeasurement of nucleotides in BALF. Endogenous nucleotidases in BALF were heat denatured (100° C., 3 minutes) and UTP/ATP content measured using the […] and luciferine-luciferase assays, respectively.\nas §3"}, "[5]": {"tested_on": "RSV-infected BALB/c mice", "experiment": "Lung water content (wet:dry weight ratio) after RSV infection", "format": "in vivo", "conditions": "day 2 p.i.", "procedure": "as §1, §3"}, "[6]": {"tested_on": "RSV strain A2", "experiment": "RSV replication in mouse lungs", "format": "in vivo, Respiratory syncytial virus", "conditions": "RSV-infected mice, day 2 p.i.; systemic treatment", "procedure": "as §1, §3"}, "[7]": {"conditions": "RSV-infected mice, d2, inhibitor 100 μM in AFC instillate (Table 5)"}}, "note": "“Also recorded” adds a separate entry of the source.", "data": [{"molecule": "O=C(O)c1cc([N+](=O)[O-])ccc1NCCCc1ccccc1", "note": "[NPPB, 5-nitro-2-(3-phenylpropylamino) benzoic acid]", "values": [{"measurement": "AFC (mean % AFC ± SE)", "setting": "[1]; [7]", "value": "32.70 ± 2.18", "unit": "%"}, {"measurement": "AFC30BASAL (mean % basal AFC after 30 minutes ± SE)", "setting": "[1]; RSV-infected mice, day 2 p.i., final concentration 100 μM (Table 6)", "value": "35.12 ± 1.94", "unit": "%"}, {"measurement": "effect on RSV-mediated inhibition of AFC at day 2 p.i. (in words)", "setting": "[1]", "value": "blocked"}]}, {"molecule": "O=C(O)c1cccnc1Nc1cccc(C(F)(F)F)c1", "note": "[Niflumic acid]", "values": [{"measurement": "AFC (mean % AFC ± SE)", "setting": "[1]; [7]", "value": "20.28 ± 1.53", "unit": "%"}, {"measurement": "effect on RSV-mediated inhibition of AFC at day 2 p.i. (in words)", "setting": "[1]", "value": "unaffected"}]}, {"molecule": "C[C@]1(C2CCCC2)Cc2cc(OCC(=O)O)c(Cl)c(Cl)c2C1=O", "note": "[R(+)-IAA 94, R(+)-[(6,7-dichloro-2-cyclopentyl-2,3-dihydro-2-methyl-1-oxo-1H-inden-5yl)-oxy] acetic acid 94]", "values": [{"measurement": "AFC (mean % AFC ± SE)", "setting": "[1]; [7]", "value": "34.25 ± 1.98", "unit": "%"}, {"measurement": "effect on RSV-mediated inhibition of AFC at day 2 p.i. (in words)", "setting": "[1]", "value": "blocked"}]}, {"molecule": "CC/C(=C(\\c1ccccc1)c1ccc(OCCN(C)C)cc1)c1ccccc1", "note": "[Tamoxifen]", "values": [{"measurement": "AFC (mean % AFC ± SE)", "setting": "[1]; RSV-infected mice, d2, inhibitor 25 μM in AFC instillate (Table 5)", "value": "34.50 ± 0.94", "unit": "%"}, {"measurement": "AFC30BASAL (mean % basal AFC after 30 minutes ± SE)", "setting": "[1]; RSV-infected mice, day 2 p.i., final concentration 25 μM (Table 6)", "value": "34.5 ± 0.95", "unit": "%"}, {"measurement": "effect on RSV-mediated inhibition of AFC at day 2 p.i. (in words)", "setting": "[1]", "value": "blocked RSV-mediated inhibition of AFC"}]}, {"molecule": "O=c1ccn([C@@H]2O[C@H](COP(=O)(O)OP(=O)(O)OP(=O)(O)O)[C@@H](O)[C@H]2O)c(=O)[nH]1", "note": "[UTP]", "values": [{"measurement": "effect of UTP in the AFC instillate on the VRAC inhibitor effect on AFC", "setting": "[1]; RSV-infected mice, d2, 500 nM UTP", "value": "reversed"}]}, {"molecule": "O=c1ccn([C@@H]2O[C@H](CO)[C@@H](O)[C@H]2O)c(=O)[nH]1", "note": "[Uridine]", "values": [{"measurement": "effect of concomitant uridine on the leflunomide effect on BALF cytokines", "setting": "[2]", "value": "only partially reversed"}, {"measurement": "effect of uridine in the AFC instillate on the A77-1726 effect on AFC", "setting": "[1]; RSV-infected mice, day 2 p.i.", "value": "fully reversed; also recorded: blocked"}, {"measurement": "AFC30BASAL (mean % basal AFC after 30 minutes ± SE)", "setting": "[1]; RSV-infected mice, day 2 p.i., leflunomide 5 mg/kg oral gavage once daily, uridine 1 mg/kg i.p. q12h", "value": "22.89 ± 2.22", "unit": "%"}, {"measurement": "effect of concomitant uridine on the leflunomide effect on AFC", "setting": "[1]; RSV-infected mice, day 2 p.i., uridine i.p. throughout the leflunomide treatment period", "value": "prevented; also recorded: reversed"}, {"measurement": "effect on RSV-mediated inhibition of AFC at d2 (in words)", "setting": "[1]; systemic treatment (leflunomide oral gavage; uridine, 6-MP i.p.)", "value": "no effect on AFC"}, {"measurement": "effect of concomitant uridine on the leflunomide effect on weight loss", "setting": "[3]", "value": "did not prevent this effect"}, {"measurement": "effect of concomitant uridine on the leflunomide effect on BALF nucleotides", "setting": "[4]", "value": "reversed the effect of leflunomide on BALF UTP and ATP levels; also recorded: caused a significant increase in the BALF nucleotide content over that in untreated RSV-infected mice"}, {"measurement": "effect of concomitant uridine on the leflunomide effect on lung water content", "setting": "[5]", "value": "reversed this effect; also recorded: prevented this effect"}, {"measurement": "virus replication in lung tissue at d2", "setting": "[6]", "value": "no effect on virus replication; also recorded: unaffected"}]}, {"molecule": "O=c1[nH]cnc2nc[nH]c12", "note": "[hypoxanthine]", "values": [{"measurement": "effect of hypoxanthine in the AFC instillate on the MPA effect on AFC", "setting": "[1]; RSV-infected mice, day 2 p.i., 50 mM hypoxanthine as printed", "value": "fully reversed; also recorded: blocked"}]}, {"molecule": "apyrase", "values": [{"measurement": "effect on RSV-mediated inhibition of AFC at day 2 p.i. (in words)", "setting": "[1]", "value": "reversed"}]}]}
